Experimental data reported in publication PMC3627194, “Xentry, a new class of cell-penetrating peptide uniquely equipped for delivery of drugs” (Scientific Reports, 2013).

Experiments:
[1] = tested on: human peripheral blood lymphocytes; assay: Uptake of Xentry by non-adherent blood lymphocytes; assay type: cell-based; details: FITC-labelled Xentry 10 μM
BT474 (breast) = assay: Cell permeability of Xentry, BT474 cell line; assay type: cell-based; details: data not shown
H441 (lung) = assay: Cell permeability of Xentry, H441 cell line; assay type: cell-based; details: data not shown
[2] = assay type: in vitro ADME; details: FITC-labelled peptide incubated in serum 0, 1 and 4 h, then incubated with HepG2 cells; read-out cell uptake by fluorescence microscopy
Description: (§1) Supplementary Figure 3. The D-isomeric form of Xentry aa 16-22 is cell permeable, and is stable in serum for at least 4 h.
(§2) (a) FITC-labelled D-isomeric Xentry was incubated with HepG2 cells at concentrations of […] for 3 h.
(§3) Uptake was recorded by fluorescence microscopy. Cell nuclei were stained with DAPI. (b) FITC-labelled L-isomeric and D-isomeric forms of Xentry were incubated in serum for 0, 1, and 4 h before incubation with HepG2 cells. Cell nuclei were stained with DAPI. Scale bar, 50 μm. […]

[3] = tested on: K562 erythroleukemia cells; assay type: cell-based; details: non-adherent K562 erythroleukemia cells, FITC-labelled Xentry (LCLRPVG), fluorescence microscopy
Description: (§4) K562 cells TK-1 cells Activated TK-1 cells
(§5) Supplementary Figure 1. […] FITC- […]
(§6) labelled Xentry (LCLRPVG; aa 16-22) was incubated with non-adherent K562 erythroleukemia cells and mouse TK-1 T cells and with Mn++-activated TK-1 cells attached to MAdCAM-1-coated plates. Cell uptake was recorded by fluorescence microscopy. Cell nuclei were stained blue with DAPI. Plates were coated with 1 µg/ml of MAdCAM-1 overnight and activated TK-1 cells were allowed to bind to the plates for 45 mins before incubation with FITC-labelled Xentry for 3 h. Scale bar represents […]

mouse TK-1 T cells = assay type: cell-based; details: non-adherent mouse TK-1 T cells, FITC-labelled Xentry (LCLRPVG), fluorescence microscopy
Description: as §4, §5, §6

C32 (melanoma) = assay: Cell permeability of Xentry, C32 cell line; assay type: cell-based; details: data not shown
[4] = tested on: Rin-m5F (pancreatic β-cell); assay: Cell permeability of Xentry, Rin-m5F cell line; assay type: cell-based; details: data not shown
[5] = tested on: Mn++-activated adherent TK-1 T cells bound to MAdCAM-1-coated plates; assay type: cell-based, mouse; details: Mn++-activated TK-1 cells bound via α4β7 to plates coated with 1 µg/ml MAdCAM-1, FITC-labelled Xentry 3 h
Description: as §4, §5, §6

[6] = Acute toxicity after intravenous injection; assay type: in vivo; details: very high concentrations, single injection into the circulation
[7] = tested on: peripheral blood monocytes attached to plastic; assay: Uptake of Xentry by adherent blood monocytes; assay type: cell-based, human; details: FITC-labelled Xentry 10 μM
HepG2 cells [8] = assay type: cell-based
Description: (§7) HepG2 cells (ATCC, Manassas, VA) were seeded into 8-well chamber slides at 1 × 10^5 cells per well in MEM media (Gibco, Life Technologies New Zealand Ltd) containing 10% FCS and PSG. […] L-isomeric peptides were diluted in 500 μl of MEM media without FCS, whereas D-isomeric peptides were diluted in the same media containing FCS, and each added to cells at a final concentration of 10 μM, or as indicated. The cells were incubated for 3 h at 37°C in a 5% CO2 atmosphere, washed with PBS, fixed with 4% formaldehyde for 30 min, and washed thrice with PBS. A drop of Prolong Gold anti-fade reagent with DAPI (Invitrogen, Life Technologies New Zealand Ltd) was added, and the cells mounted and examined with a Nikon E600 fluorescence microscope or a Leica TCS-SP2 confocal microscope.
Untreated 37°C 4°C deoxyglucose Heparin Chlorpromazine
Supplementary Figure 2. Cellular requirements for internalization of Xentry by HepG2 cells. (a) Incubation of FITC-labelled Xentry with HepG2 cells for 3 h at 4°C, or in the presence of 10 mM sodium azide and 6 mM 2-deoxy-D-glucose, 2 µg/ml heparin, or 10 µg/ml of chlorpromazine, as indicated, inhibited peptide uptake. Cell nuclei were stained blue with DAPI. Scale bar, 50 μm. […]

erythrocytes = assay: Uptake of Xentry by erythrocytes; assay type: cell-based, human; details: FITC-labelled Xentry 10 μM
Cos (kidney) = assay: Cell permeability of Xentry, Cos cell line; assay type: cell-based; details: data not shown
HepG2 cells [9] = assay: Assay to test for cell permeability of peptides; assay type: cell-based; details: confocal microscopy
Description: Figure 1 Cell-permeability of X-protein peptides. (a) X-protein peptides aa 1–20 and 16–35 are cell-permeable. Four FITC-labelled peptides encompassing aa 1–20, 16–35, 21–40 and 34–53 from the N-terminal region of the X-protein were incubated at 10 μM with HepG2 cells and their uptake by the cells recorded by confocal microscopy. Cell nuclei were stained blue with DAPI. (b) The sequence of the first 35 N-terminal residues of the HBV X-protein are shown with the sequence of Xentry (LCLRPVG; residues 16–22) highlighted in red. Short FITC-labelled peptides (10 μM) aa 16–26, 16–24 and 16–22 (Xentry) derived from peptide aa 16–35 also permeate HepG2 cells (upper panel). […] Cell nuclei were stained blue with DAPI. […] Cell nuclei were stained blue with DAPI. Scale bar, 50 μm.
as §7, §1, §2, §3

DU145 (prostate) = assay: Cell permeability of Xentry, DU145 cell line; assay type: cell-based; details: data not shown

**Q.** For “LCLRPVG [Xentry, 7 amino acid residue peptide LCLRPVG (residues 16–22) of the HBV X-protein; FITC-labelled in uptake tests]”, which Cell permeability [1] is on record?
**A.** incapable of permeating

**Q.** And the Cell permeability (BT474 (breast))?
**A.** capable of permeating

**Q.** What about the Cell permeability (H441 (lung)) of the same substance?
**A.** capable of permeating

**Q.** What about the “Time to inactivation in serum” value [2] of the same substance?
**A.** ≤ 1 h

**Q.** And the Cell permeability [3]?
**A.** incapable of permeating

**Q.** What about the Cell permeability (mouse TK-1 T cells) of the same substance?
**A.** incapable of permeating

**Q.** What about the Cell permeability (C32 (melanoma)) of the same substance?
**A.** capable of permeating

**Q.** What about the Cell permeability [4] of the same substance?
**A.** capable of permeating

**Q.** What about the Cell uptake [5] of the same substance?
**A.** taken up

**Q.** And the Acute toxicity [6]?
**A.** no signs of acute toxicity

**Q.** What about the Cell uptake [7] of the same substance?
**A.** taken up

**Q.** And the “Internalization by HepG2 cells at 4°C” value (HepG2 cells [8]; FITC-labelled Xentry, 3 h, 4°C)?
**A.** not at 4 °C

**Q.** And the “Internalization by HepG2 cells at 37°C” value (HepG2 cells [8]; FITC-labelled Xentry, 3 h, 37°C)?
**A.** internalized

**Q.** What about the “Uptake in the presence of heparin” value (HepG2 cells [8]; HepG2, 2 µg/ml heparin, 3 h) of the same substance?
**A.** blocked

**Q.** What about the “Uptake in the presence of chlorpromazine” value (HepG2 cells [8]; HepG2, 10 µg/ml chlorpromazine (clathrin pathway inhibitor), 3 h) of the same substance?
**A.** blocked

**Q.** And the “Uptake after pretreatment with azide and deoxyglucose” value (HepG2 cells [8]; HepG2, 10 mM sodium azide and 6 mM 2-deoxy-D-glucose, 3 h)?
**A.** blocked

**Q.** What about the “Effect of cytochalasin D on uptake” value (HepG2 cells [8]; HepG2, data not shown) of the same substance?
**A.** without effect

**Q.** And the “Effect of filipin on uptake” value (HepG2 cells [8]; HepG2, data not shown)?
**A.** without effect

**Q.** And the Cell permeability (erythrocytes)?
**A.** incapable of permeating

**Q.** And the Cell permeability (Cos (kidney))?
**A.** capable of permeating

**Q.** What about the “Cell permeability (uptake by HepG2 cells)” value (HepG2 cells [9]; FITC-labelled L-isomeric peptide 10 μM, MEM without FCS, 3 h, 37°C, cells fixed) of the same substance?
**A.** cell-permeable

**Q.** What about the “Subcellular localisation after uptake” value (HepG2 cells [9]; FITC-labelled peptide 10 μM, HepG2 cells, DAPI) of the same substance?
**A.** taken up into the cytoplasm and nucleus

**Q.** What about the Cell permeability (DU145 (prostate)) of the same substance?
**A.** capable of permeating
